Results from the NIST ThermoML archive (doi:10.1016/j.jct.2013.10.034).

Assay: xn = mol fraction of the nth substance listed
Conditions: 100 kPa, Liquid; for viscosity: Falling or rolling sphere viscometry; for mass density: Vibrating tube method

CCCC[N+]1(C)CCCCC1.N#C[N-]C#N [1-butyl-1-methylpiperidinium dicyanamide] + O
Conditions	mass density [kg/m3]	viscosity [mPa·s]
298.15 K, x1 = 0.0936	1007.95	6.144
298.15 K, x1 = 0.1748	1011.38	10.16
298.15 K, x1 = 0.2651	1013.31	16.96
298.15 K, x1 = 0.3581	1014.27	24.65
298.15 K, x1 = 0.4952	1014.9	36.93
298.15 K, x1 = 0.6246	1015.36	49.82
298.15 K, x1 = 0.7878	1015.65	72.53
298.15 K, x1 = 0.9216	1015.91	103.3
298.15 K, x1 = 1	1016.13	123.3
303.15 K, x1 = 0.0936	1004.63	5.247
303.15 K, x1 = 0.1748	1008.21	8.56
303.15 K, x1 = 0.2651	1010.2	14.05
303.15 K, x1 = 0.3581	1011.26	20.16
303.15 K, x1 = 0.4952	1012.13	29.68
303.15 K, x1 = 0.6246	1012.52	40.79
303.15 K, x1 = 0.7878	1012.82	57.58
303.15 K, x1 = 0.9216	1012.88	79.12
303.15 K, x1 = 1	1012.98	92.97
308.15 K, x1 = 0.0936	1001.56	4.529
308.15 K, x1 = 0.1748	1005.06	7.3
308.15 K, x1 = 0.2651	1007.08	11.81
308.15 K, x1 = 0.3581	1008.27	16.78
308.15 K, x1 = 0.4952	1009.31	24.59
308.15 K, x1 = 0.6246	1009.93	32.52
308.15 K, x1 = 0.7878	1010.41	46
308.15 K, x1 = 0.9216	1010.57	64.15
308.15 K, x1 = 1	1010.65	75.58
313.15 K, x1 = 0.0936	998.43	3.946
313.15 K, x1 = 0.1748	1001.86	6.291
313.15 K, x1 = 0.2651	1004.02	10.05
313.15 K, x1 = 0.3581	1005.25	14.16
313.15 K, x1 = 0.4952	1006.34	20.59
313.15 K, x1 = 0.6246	1007.01	27.94
313.15 K, x1 = 0.7878	1007.53	38.87
313.15 K, x1 = 0.9216	1007.8	51.99
313.15 K, x1 = 1	1007.92	60.93
318.15 K, x1 = 0.0936	995.26	3.467
318.15 K, x1 = 0.1748	998.67	5.47
318.15 K, x1 = 0.2651	1000.91	8.651
318.15 K, x1 = 0.3581	1002.25	12.11
318.15 K, x1 = 0.4952	1003.45	17.45
318.15 K, x1 = 0.6246	1004.15	23.32
318.15 K, x1 = 0.7878	1004.74	32.26
318.15 K, x1 = 0.9216	1005.06	42.71
318.15 K, x1 = 1	1005.2	49.79
323.15 K, x1 = 0.0936	992.05	3.072
323.15 K, x1 = 0.1748	995.43	4.8
323.15 K, x1 = 0.2651	997.8	7.52
323.15 K, x1 = 0.3581	999.24	10.45
323.15 K, x1 = 0.4952	1000.53	14.98
323.15 K, x1 = 0.6246	1001.31	19.5
323.15 K, x1 = 0.7878	1001.95	27.35
323.15 K, x1 = 0.9216	1002.33	35.62
323.15 K, x1 = 1	1002.47	41.31
328.15 K, x1 = 0.0936	988.8	2.741
328.15 K, x1 = 0.1748	992.22	4.249
328.15 K, x1 = 0.2651	994.68	6.592
328.15 K, x1 = 0.3581	996.18	9.141
328.15 K, x1 = 0.4952	997.63	12.99
328.15 K, x1 = 0.6246	998.47	16.43
328.15 K, x1 = 0.7878	999.19	23.47
328.15 K, x1 = 0.9216	999.6	30.08
328.15 K, x1 = 1	999.77	34.72
333.15 K, x1 = 0.0936	985.51	2.461
333.15 K, x1 = 0.1748	988.96	3.788
333.15 K, x1 = 0.2651	991.37	6.05
333.15 K, x1 = 0.3581	993.2	8.041
333.15 K, x1 = 0.4952	994.75	11.37
333.15 K, x1 = 0.6246	995.66	13.93
333.15 K, x1 = 0.7878	996.46	20.41
333.15 K, x1 = 0.9216	996.9	25.64
333.15 K, x1 = 1	997.08	29.45
338.15 K, x1 = 0.0936	982.59	2.223
338.15 K, x1 = 0.1748	985.7	3.407
338.15 K, x1 = 0.2651	988.38	5.181
338.15 K, x1 = 0.3581	990.24	7.12
338.15 K, x1 = 0.4952	991.9	10.04
338.15 K, x1 = 0.6246	992.85	12.9
338.15 K, x1 = 0.7878	993.65	17.17
338.15 K, x1 = 0.9216	994.16	21.35
338.15 K, x1 = 1	994.39	–
343.15 K, x1 = 0.0936	979.99	2.021
343.15 K, x1 = 0.1748	982.41	3.088
343.15 K, x1 = 0.2651	984.88	4.682
343.15 K, x1 = 0.3581	986.93	6.355
343.15 K, x1 = 0.4952	988.84	8.928
343.15 K, x1 = 0.6246	990.06	11.72
343.15 K, x1 = 0.7878	990.92	15.74
343.15 K, x1 = 0.9216	991.45	19.52
343.15 K, x1 = 1	991.72	21.98
